Literature values, collected in patent US11718625B2, “Near-infrared fluorescent molecule active targeting folate receptor and preparation method thereof” (NANJING NUOYUAN MEDICAL DEVICES CO., LTD, priority 2020, dated 2023).

Columns and labels:
[1] = at maximum injection dosage less than 2 mg/kg; literature report and own detection data
[2] = test system: tumor; details: clinical practice

SMILES: CC1(C)C(/C=C/C=C/C=C/C=C2\N(CCCCS(=O)(=O)O)c3ccc4ccccc4c3C2(C)C)=[N+](CCCCS(=O)(=O)[O-])c2ccc3ccccc3c21 [ICG, Indocyanine green]
- concentration of the ICG in the human body tumors [1]: 10 to 1000 nM
- quantum yield (in an aqueous solution): less than 1%
- wavelength of emitted fluorescence (under irradiation with the wavelength of 780 nm): 830 nm
- waiting time to generate sufficient fluorescence contrast (tumor: normal tissue) [2]: at least 12 hours
